Laboratory results from PMC11200585, “Prospects for Prostate Cancer Chemotherapy: Cytotoxic Evaluation and Mechanistic Insights of Quinolinequinones with ADME/PK Profile” (Biomedicines, 2024).

Columns and labels:
Type in all cases: cell-based, human
[1] = test system: A498; experiment: NCI-60 one-dose screen (renal cancer); conditions: 10 µM single dose, 48 h
Description: (§1) The obtained quinolinequinones were submitted to NCI, Bethesda, USA, and, as per standard protocol of NCI, all compounds were evaluated for their antiproliferative activity at single-dose assay (10 µM concentration in DMSO) on a panel of 60 cancer cell lines derived from leukemia, non-small-cell lung, colon, CNS, melanoma, ovarian, renal, prostate, and breast, as per protocol. Tested compounds were added to the microtiter culture plates followed by incubation for 48 h at 37 °C. Sulforhodamine B (SRB), a protein-binding dye, is used for endpoint determination. The percent of the growth of the treated cells was determined in comparison to the untreated control cells and the results of each tested compound were reported. Data from one-dose experiments pertain to the percentage growth at 10 μM [16, 17, 18].

[2] = test system: UO-31; experiment: NCI-60 one-dose screen (renal cancer); conditions: 10 µM single dose, 48 h
Description: as §1

[3] = test system: ACHN; experiment: NCI-60 one-dose screen (renal cancer); conditions: 10 µM single dose, 48 h
Description: as §1

[4] = test system: 786-0; experiment: NCI-60 one-dose screen (renal cancer); conditions: 10 µM single dose, 48 h
Description: as §1

[5] = test system: SN12C; experiment: NCI-60 one-dose screen (renal cancer); conditions: 10 µM single dose, 48 h
Description: as §1

[6] = test system: TK-10; experiment: NCI-60 one-dose screen (renal cancer); conditions: 10 µM single dose, 48 h
Description: as §1

[7] = test system: NCI-H23; experiment: NCI-60 one-dose screen (non-small cell lung cancer); conditions: 10 µM single dose, 48 h
Description: as §1

[8] = test system: NCI-H322M; experiment: as above; conditions: 10 µM single dose, 48 h
Description: as §1

[9] = test system: HOP-92; experiment: as above; conditions: 10 µM single dose, 48 h
Description: as §1

[10] = test system: EKVX; experiment: as above; conditions: 10 µM single dose, 48 h
Description: as §1

[11] = test system: HOP-62; experiment: as above; conditions: 10 µM single dose, 48 h
Description: as §1

[12] = test system: NCI-H226; experiment: as above; conditions: 10 µM single dose, 48 h
Description: as §1

[13] = test system: NCI-H522; experiment: as above; conditions: 10 µM single dose, 48 h
Description: as §1

[14] = test system: NCI-H460; experiment: as above; conditions: 10 µM single dose, 48 h
Description: as §1

[15] = test system: A549/ATCC; experiment: as above; conditions: 10 µM single dose, 48 h
Description: as §1

[16] = test system: PC-3; experiment: NCI-60 one-dose screen (prostate cancer); conditions: 10 µM single dose, 48 h
Description: as §1

[17] = test system: DU-145; experiment: NCI-60 one-dose screen (prostate cancer); conditions: 10 µM single dose, 48 h
Description: as §1

[18] = test system: CCRF-CEM; experiment: NCI-60 one-dose screen (leukemia); conditions: 10 µM single dose
Description: as §1

[19] = test system: MOLT-4; experiment: NCI-60 one-dose screen (leukemia); conditions: 10 µM single dose, 48 h
Description: as §1

[20] = test system: SR; experiment: NCI-60 one-dose screen (leukemia); conditions: 10 µM single dose
Description: as §1

[21] = test system: RPMI-8226; experiment: NCI-60 one-dose screen (leukemia); conditions: 10 µM single dose, 48 h
Description: as §1

[22] = test system: K-562; experiment: NCI-60 one-dose screen (leukemia)
Description: as §1

[23] = test system: HL-60(TB); experiment: NCI-60 one-dose screen (leukemia); conditions: 10 µM single dose
Description: as §1

[24] = test system: OVCAR-8; experiment: NCI-60 one-dose screen (ovarian cancer); conditions: 10 µM single dose, 48 h
Description: as §1

[25] = test system: IGROV1; experiment: NCI-60 one-dose screen (ovarian cancer)
Description: as §1

[26] = test system: OVCAR-5; experiment: NCI-60 one-dose screen (ovarian cancer); conditions: 10 µM single dose, 48 h
Description: as §1

[27] = test system: NCI/ADR-RES; experiment: NCI-60 one-dose screen (ovarian cancer); conditions: 10 µM single dose, 48 h
Description: as §1

[28] = test system: SK-OV-3; experiment: NCI-60 one-dose screen (ovarian cancer); conditions: 10 µM single dose, 48 h
Description: as §1

[29] = test system: OVCAR-4; experiment: NCI-60 one-dose screen (ovarian cancer); conditions: 10 µM single dose, 48 h
Description: as §1

[30] = test system: OVCAR-3; experiment: NCI-60 one-dose screen (ovarian cancer); conditions: 10 µM single dose
Description: as §1

[31] = test system: HS 578T; experiment: NCI-60 one-dose screen (breast cancer); conditions: 10 µM single dose, 48 h
Description: as §1

[32] = test system: MDA-MB-231/ATCC; experiment: NCI-60 one-dose screen (breast cancer); conditions: 10 µM single dose, 48 h
Description: as §1

[33] = test system: T-47D; experiment: NCI-60 one-dose screen (breast cancer); conditions: 10 µM single dose
Description: as §1

[34] = test system: BT-549; experiment: NCI-60 one-dose screen (breast cancer); conditions: 10 µM single dose, 48 h
Description: as §1

[35] = test system: MDA-MB-468; experiment: NCI-60 one-dose screen (breast cancer); conditions: 10 µM single dose, 48 h
Description: as §1

[36] = test system: MCF7; experiment: NCI-60 one-dose screen (breast cancer); conditions: 10 µM single dose, 48 h
Description: as §1

[37] = test system: SF-268; experiment: NCI-60 one-dose screen (CNS cancer); conditions: 10 µM single dose, 48 h
Description: as §1

[38] = test system: SNB-19; experiment: NCI-60 one-dose screen (CNS cancer); conditions: 10 µM single dose, 48 h
Description: as §1

[39] = test system: SF-539; experiment: NCI-60 one-dose screen (CNS cancer); conditions: 10 µM single dose, 48 h
Description: as §1

[40] = test system: U251; experiment: NCI-60 one-dose screen (CNS cancer); conditions: 10 µM single dose, 48 h
Description: as §1

[41] = test system: SNB-75; experiment: NCI-60 one-dose screen (CNS cancer); conditions: 10 µM single dose, 48 h
Description: as §1

[42] = test system: SF-295; experiment: NCI-60 one-dose screen (CNS cancer); conditions: 10 µM single dose, 48 h
Description: as §1

[43] = test system: UACC-257; experiment: NCI-60 one-dose screen (melanoma); conditions: 10 µM single dose, 48 h
Description: as §1

[44] = test system: MDA-MB-435; experiment: NCI-60 one-dose screen (melanoma); conditions: 10 µM single dose, 48 h
Description: as §1

[45] = test system: MALME-3M; experiment: NCI-60 one-dose screen (melanoma); conditions: 10 µM single dose, 48 h
Description: as §1

[46] = test system: LOX IMVI; experiment: NCI-60 one-dose screen (melanoma); conditions: 10 µM single dose, 48 h
Description: as §1

[47] = test system: SK-MEL-5; experiment: NCI-60 one-dose screen (melanoma); conditions: 10 µM single dose, 48 h
Description: as §1

[48] = test system: SK-MEL-2; experiment: NCI-60 one-dose screen (melanoma); conditions: 10 µM single dose, 48 h
Description: as §1

[49] = test system: UACC-62; experiment: NCI-60 one-dose screen (melanoma); conditions: 10 µM single dose, 48 h
Description: as §1

[50] = test system: SK-MEL-28; experiment: NCI-60 one-dose screen (melanoma); conditions: 10 µM single dose, 48 h
Description: as §1

[51] = test system: HCT-116; experiment: NCI-60 one-dose screen (colon cancer); conditions: 10 µM single dose, 48 h
Description: as §1

[52] = test system: KM12; experiment: NCI-60 one-dose screen (colon cancer); conditions: 10 µM single dose, 48 h
Description: as §1

[53] = test system: HCC-2998; experiment: NCI-60 one-dose screen (colon cancer); conditions: 10 µM single dose, 48 h
Description: as §1

[54] = test system: SW-620; experiment: NCI-60 one-dose screen (colon cancer); conditions: 10 µM single dose, 48 h
Description: as §1

[55] = test system: HCT-15; experiment: NCI-60 one-dose screen (colon cancer); conditions: 10 µM single dose, 48 h
Description: as §1

[56] = test system: COLO 205; experiment: NCI-60 one-dose screen (colon cancer); conditions: 10 µM single dose, 48 h
Description: as §1

[57] = test system: HT29; experiment: NCI-60 one-dose screen (colon cancer); conditions: 10 µM single dose, 48 h
Description: as §1

## COc1ccc(NC2=C(Cl)C(=O)c3nc(C)ccc3C2=O)cc1OC [AQQ4]
[1]
  GP (growth percentage): 82.55%
[2]
  GP (growth percentage): 100.30%
[3]
  GP (growth percentage): 95.00%
[4]
  GP (growth percentage): 98.99%
[5]
  GP (growth percentage): 90.46%
[6]
  GP (growth percentage): 148.82%
[7]
  GP (growth percentage): 59.03%
[8]
  GP (growth percentage): 99.05%
[9]
  GP (growth percentage): 112.07%
[10]
  GP (growth percentage): 50.81%
[11]
  GP (growth percentage): 110.03%
[12]
  GP (growth percentage): 97.11%
[13]
  GP (growth percentage): 78.84%
[14]
  GP (growth percentage): 100.46%
[15]
  GP (growth percentage): 107.06%
[16]
  GP (growth percentage): 70.56%
[17]
  GP (growth percentage): 93.00%
[18]; 48 h
  GP (growth percentage): 15.29%
[18]; Homo sapiens
  inhibition at 10 µM: 84.7%
[19]
  GP (growth percentage): 69.83%
[20]; 48 h
  GP (growth percentage): 0.92%
[20]; Homo sapiens
  inhibition at 10 µM: 99.1%
[21]
  GP (growth percentage): 47.33%
[22]; 10 µM single dose, 48 h
  GP (growth percentage): 7.18%
[22]; Homo sapiens, K562, 10 µM single dose
  inhibition at 10 µM: 92.8%
[23]; 48 h
  GP (growth percentage): 9.95%
[23]; Homo sapiens
  inhibition at 10 µM: 90%
[24]
  GP (growth percentage): 92.63%
[25]; 10 µM single dose, 48 h
  GP (growth percentage): 19.63%
[25]; Homo sapiens, IGROV-1, 10 µM single dose
  inhibition at 10 µM: 80.4%
[26]
  GP (growth percentage): 104.66%
[27]
  GP (growth percentage): 94.66%
[28]
  GP (growth percentage): 91.82%
[29]
  GP (growth percentage): 71.38%
[30]; 48 h
  GP (growth percentage): 13.16%
[30]; Homo sapiens
  inhibition at 10 µM: 86.8%
[31]
  GP (growth percentage): 118.57%
[32]
  GP (growth percentage): 72.96%
[33]; 48 h
  GP (growth percentage): 14.93%
[33]; Homo sapiens, T47D
  inhibition at 10 µM: 85.1%
[34]
  GP (growth percentage): 126.22%
[35]
  GP (growth percentage): 58.11%
[36]
  GP (growth percentage): 59.00%
[37]
  GP (growth percentage): 84.69%
[38]
  GP (growth percentage): 94.62%
[39]
  GP (growth percentage): 103.46%
[40]
  GP (growth percentage): 105.80%
[41]
  GP (growth percentage): 110.92%
[42]
  GP (growth percentage): 103.62%
[43]
  GP (growth percentage): 91.03%
[44]
  GP (growth percentage): −67.16%
[45]
  GP (growth percentage): 94.54%
[46]
  GP (growth percentage): −3.09%
[47]
  GP (growth percentage): 86.57%
[48]
  GP (growth percentage): 100.13%
[49]
  GP (growth percentage): 71.83%
[50]
  GP (growth percentage): 101.65%
[51]
  GP (growth percentage): 55.84%
[52]
  GP (growth percentage): 98.23%
[53]
  GP (growth percentage): 103.69%
[54]
  GP (growth percentage): 72.23%
[55]
  GP (growth percentage): 82.29%
[56]
  GP (growth percentage): 107.70%
[57]
  GP (growth percentage): 109.56%
